In PubChem BioAssay (NCI):
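Each compound was tested at five concentrations against cells in 96-well plates for 48 hours. The concentration for 50% growth inhibition is given as GI50. At the TGI there is no net growth.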

How the values were obtained:
Experiment in all cases: growth of human tumour cells (NCI), 48 h
U251 CNS = tested on: U251 CNS
HCC-2998 colon = tested on: HCC-2998 colon
EKVX NSCLC = tested on: EKVX NSCLC
A498 renal = tested on: A498 renal
IGROV1 ovarian = tested on: IGROV1 ovarian
SK-MEL-28 melanoma = tested on: SK-MEL-28 melanoma
PC-3 prostate = tested on: PC-3 prostate
NCI-H23 lung = tested on: NCI-H23 lung
HL-60(TB) leukemia = tested on: HL-60(TB) leukemia
SK-MEL-2 melanoma = tested on: SK-MEL-2 melanoma
UACC-62 melanoma = tested on: UACC-62 melanoma
KM12 colon = tested on: KM12 colon
SK-OV-3 ovarian = tested on: SK-OV-3 ovarian
NCI-H226 lung = tested on: NCI-H226 lung
SK-MEL-5 melanoma = tested on: SK-MEL-5 melanoma
MOLT-4 leukemia = tested on: MOLT-4 leukemia
CAKI-1 renal = tested on: CAKI-1 renal
SR leukemia = tested on: SR leukemia
MDA-MB-435 = tested on: MDA-MB-435
M14 melanoma = tested on: M14 melanoma
MALME-3M melanoma = tested on: MALME-3M melanoma
K-562 leukemia = tested on: K-562 leukemia
UO-31 renal = tested on: UO-31 renal
TK-10 renal = tested on: TK-10 renal
SF-295 CNS = tested on: SF-295 CNS
SW-620 colon = tested on: SW-620 colon
DU-145 prostate = tested on: DU-145 prostate
LOX IMVI melanoma = tested on: LOX IMVI melanoma
HOP-62 NSCLC = tested on: HOP-62 NSCLC
RPMI-8226 leukemia = tested on: RPMI-8226 leukemia
BT-549 breast = tested on: BT-549 breast
HCT-15 colon = tested on: HCT-15 colon
SF-268 CNS = tested on: SF-268 CNS
NCI-H522 lung = tested on: NCI-H522 lung
SN12C renal = tested on: SN12C renal
786-0 renal = tested on: 786-0 renal
RXF 393 renal = tested on: RXF 393 renal
CCRF-CEM leukemia = tested on: CCRF-CEM leukemia
SF-539 CNS = tested on: SF-539 CNS
OVCAR-3 ovarian = tested on: OVCAR-3 ovarian
OVCAR-8 ovarian = tested on: OVCAR-8 ovarian
SNB-19 CNS = tested on: SNB-19 CNS
COLO 205 colon = tested on: COLO 205 colon
NCI/ADR-RES ovarian = tested on: NCI/ADR-RES ovarian
NCI-H460 lung = tested on: NCI-H460 lung
UACC-257 melanoma = tested on: UACC-257 melanoma
HOP-92 NSCLC = tested on: HOP-92 NSCLC
ACHN renal = tested on: ACHN renal
MCF7 breast = tested on: MCF7 breast
OVCAR-4 ovarian = tested on: OVCAR-4 ovarian
HS 578T breast = tested on: HS 578T breast
HT29 colon = tested on: HT29 colon
MDA-MB-231 breast = tested on: MDA-MB-231 breast
OVCAR-5 ovarian = tested on: OVCAR-5 ovarian
A549 NSCLC = tested on: A549 NSCLC
MDA-MB-468 breast = tested on: MDA-MB-468 breast
T-47D breast = tested on: T-47D breast
HCT-116 colon = tested on: HCT-116 colon
SNB-75 CNS = tested on: SNB-75 CNS

COc1ccccc1/C=C/c1cccc(NC(=S)NCCCCN(C)C)c1
GI50 (U251 CNS): 17.6 µM
TGI (U251 CNS): 33.3 µM
GI50 (HCC-2998 colon): 13.2 µM
TGI (HCC-2998 colon): 27.2 µM
GI50 (EKVX NSCLC): 14.9 µM
TGI (EKVX NSCLC): 31.3 µM
GI50 (A498 renal): 16.5 µM
TGI (A498 renal): 30.3 µM
GI50 (IGROV1 ovarian): 17 µM
TGI (IGROV1 ovarian): 32.3 µM
GI50 (SK-MEL-28 melanoma): 15.9 µM
TGI (SK-MEL-28 melanoma): 29.5 µM
GI50 (PC-3 prostate): 14.2 µM
TGI (PC-3 prostate): 30.5 µM
GI50 (NCI-H23 lung): 15.2 µM
TGI (NCI-H23 lung): 30.4 µM
GI50 (HL-60(TB) leukemia): 12.4 µM
TGI (HL-60(TB) leukemia): 29.7 µM
GI50 (SK-MEL-2 melanoma): 16.1 µM
TGI (SK-MEL-2 melanoma): 31.3 µM
GI50 (UACC-62 melanoma): 15.5 µM
TGI (UACC-62 melanoma): 29.3 µM
GI50 (KM12 colon): 16.1 µM
TGI (KM12 colon): 32.1 µM
GI50 (SK-OV-3 ovarian): 17 µM
TGI (SK-OV-3 ovarian): 35.1 µM
GI50 (NCI-H226 lung): 10.2 µM
TGI (NCI-H226 lung): 27.4 µM
GI50 (SK-MEL-5 melanoma): 14 µM
TGI (SK-MEL-5 melanoma): 26.9 µM
GI50 (MOLT-4 leukemia): 13.3 µM
TGI (MOLT-4 leukemia): 32.2 µM
GI50 (CAKI-1 renal): 14.5 µM
TGI (CAKI-1 renal): 27.8 µM
GI50 (SR leukemia): 11.7 µM
TGI (SR leukemia): 35.4 µM
GI50 (MDA-MB-435): 3.82 µM
TGI (MDA-MB-435): 15.7 µM
GI50 (M14 melanoma): 12.1 µM
TGI (M14 melanoma): 26.5 µM
GI50 (MALME-3M melanoma): 15.8 µM
TGI (MALME-3M melanoma): 29.8 µM
GI50 (K-562 leukemia): 3.07 µM
TGI (K-562 leukemia): 13.3 µM
GI50 (UO-31 renal): 13.7 µM
TGI (UO-31 renal): 27.7 µM
GI50 (TK-10 renal): 17.3 µM
TGI (TK-10 renal): 32.3 µM
GI50 (SF-295 CNS): 12.5 µM
TGI (SF-295 CNS): 26.1 µM
GI50 (SW-620 colon): 14.5 µM
TGI (SW-620 colon): 31.7 µM
GI50 (DU-145 prostate): 15.9 µM
TGI (DU-145 prostate): 32.5 µM
GI50 (LOX IMVI melanoma): 11.7 µM
TGI (LOX IMVI melanoma): 25 µM
GI50 (HOP-62 NSCLC): 16.2 µM
TGI (HOP-62 NSCLC): 32.3 µM
GI50 (RPMI-8226 leukemia): 17.2 µM
TGI (RPMI-8226 leukemia): 51.8 µM
GI50 (BT-549 breast): 17.6 µM
TGI (BT-549 breast): 33.3 µM
GI50 (HCT-15 colon): 8.09 µM
TGI (HCT-15 colon): 21.6 µM
GI50 (SF-268 CNS): 15.3 µM
TGI (SF-268 CNS): 34.5 µM
GI50 (NCI-H522 lung): 15.2 µM
TGI (NCI-H522 lung): 31.3 µM
GI50 (SN12C renal): 15 µM
TGI (SN12C renal): 29 µM
GI50 (786-0 renal): 15.8 µM
TGI (786-0 renal): 33.4 µM
GI50 (RXF 393 renal): 11.8 µM
TGI (RXF 393 renal): 26.2 µM
GI50 (CCRF-CEM leukemia): 12 µM
TGI (CCRF-CEM leukemia): 29.5 µM
GI50 (SF-539 CNS): 13.4 µM
TGI (SF-539 CNS): 26.2 µM
GI50 (OVCAR-3 ovarian): 10.7 µM
TGI (OVCAR-3 ovarian): 26 µM
GI50 (OVCAR-8 ovarian): 17 µM
TGI (OVCAR-8 ovarian): 34.5 µM
GI50 (SNB-19 CNS): 17.5 µM
TGI (SNB-19 CNS): 34.7 µM
GI50 (COLO 205 colon): 13.6 µM
TGI (COLO 205 colon): 29.9 µM
GI50 (NCI/ADR-RES ovarian): 14.9 µM
TGI (NCI/ADR-RES ovarian): 37.9 µM
GI50 (NCI-H460 lung): 12.5 µM
TGI (NCI-H460 lung): 27.8 µM
GI50 (UACC-257 melanoma): 16.3 µM
TGI (UACC-257 melanoma): 31.7 µM
GI50 (HOP-92 NSCLC): 10.1 µM
TGI (HOP-92 NSCLC): 25.9 µM
GI50 (ACHN renal): 15.7 µM
TGI (ACHN renal): 29.1 µM
GI50 (MCF7 breast): 10.4 µM
TGI (MCF7 breast): 24.2 µM
GI50 (OVCAR-4 ovarian): 14.9 µM
TGI (OVCAR-4 ovarian): 29.6 µM
GI50 (HS 578T breast): 18.3 µM
TGI (HS 578T breast): 45.2 µM
GI50 (HT29 colon): 5.8 µM
TGI (HT29 colon): 20.6 µM
GI50 (MDA-MB-231 breast): 14.1 µM
TGI (MDA-MB-231 breast): 27.8 µM
GI50 (OVCAR-5 ovarian): 15.3 µM
TGI (OVCAR-5 ovarian): 29 µM
GI50 (A549 NSCLC): 16.3 µM
TGI (A549 NSCLC): 34.4 µM
GI50 (MDA-MB-468 breast): 10.1 µM
TGI (MDA-MB-468 breast): 22.6 µM
GI50 (T-47D breast): 11.6 µM
TGI (T-47D breast): 27.3 µM
GI50 (HCT-116 colon): 11.8 µM
TGI (HCT-116 colon): 28.6 µM
GI50 (SNB-75 CNS): 12.1 µM
TGI (SNB-75 CNS): 27.2 µM
